Results reported in the supplement of paper PMC10307832.

Tests used:
Experiment in all cases: relative viability (nuclei count vs DMSO), 5 days (fraction); higher = more cells survive
[1] = system: A-427
Outline: (§1)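 Cells from lung cancer lines were seeded into 1536-well plates and, one day later, dosed by pin tool. Treatments were either a single drug or a fixed dose of an anchor drug with five library-drug doses (not always all listed) in √10 steps. After 5 days, nuclei were stained in a one-step fixation (final 0.05% Triton X-100, 1% formaldehyde, 1 ug/ml Hoechst) and counted on 4× images, and relative viability is the treated-to-vehicle nuclei ratio, as the median of duplicate plates.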

[2] = system: COR-L 105
Outline: as §1

[3] = system: EPLC-272H
Outline: as §1

[4] = system: HCC-366
Outline: as §1

[5] = system: HCC-78
Outline: as §1

[6] = system: HOP-62
Outline: as §1

[7] = system: LC-2-ad
Outline: as §1

[8] = system: LU99A
Outline: as §1

[9] = system: LXF-289
Outline: as §1

[10] = system: NCI-H1666
Outline: as §1

[11] = system: NCI-H1792
Outline: as §1

[12] = system: NCI-H1793
Outline: as §1

[13] = system: NCI-H1915
Outline: as §1

[14] = system: NCI-H1944
Outline: as §1

[15] = system: NCI-H2009
Outline: as §1

[16] = system: NCI-H2085
Outline: as §1

[17] = system: NCI-H358
Outline: as §1

[18] = system: NCI-H460
Outline: as §1

[19] = system: SK-LU-1
Outline: as §1

[20] = system: UMC-11
Outline: as §1

COc1nc(C)cnc1NS(=O)(=O)c1cccnc1-c1ccc(-c2nnco2)cc1 [Zibotentan] + C[C@]1(O)C[C@@H](c2nc(-c3ccc4ccc(-c5ccccc5)nc4c3)c3c(N)nccn32)C1 [Linsitinib] (partner 1 µM)
relative viability ([1]; first compound 0.08 µM): 1.12
relative viability ([1]; first compound 0.253 µM): 1.17
relative viability ([1]; first compound 0.8 µM): 1.14
relative viability ([1]; first compound 2.53 µM): 1.12
relative viability ([2]; first compound 0.08 µM): 1.02
relative viability ([2]; first compound 0.253 µM): 0.871
relative viability ([2]; first compound 0.8 µM): 0.986
relative viability ([2]; first compound 2.53 µM): 0.919
relative viability ([3]; first compound 0.08 µM): 1.06
relative viability ([3]; first compound 0.253 µM): 1.23
relative viability ([3]; first compound 0.8 µM): 1.33
relative viability ([3]; first compound 2.53 µM): 1.22
relative viability ([4]; first compound 0.08 µM): 0.7
relative viability ([4]; first compound 0.253 µM): 0.586
relative viability ([4]; first compound 0.8 µM): 0.518
relative viability ([4]; first compound 2.53 µM): 0.794
relative viability ([5]; first compound 0.08 µM): 0.548
relative viability ([5]; first compound 0.253 µM): 0.503
relative viability ([5]; first compound 0.8 µM): 0.411
relative viability ([5]; first compound 2.53 µM): 0.49
relative viability ([6]; first compound 0.08 µM): 0.805
relative viability ([6]; first compound 0.253 µM): 1.06
relative viability ([6]; first compound 0.8 µM): 0.992
relative viability ([6]; first compound 2.53 µM): 1.29
relative viability ([7]; first compound 0.08 µM): 0.904
relative viability ([7]; first compound 0.253 µM): 0.828
relative viability ([7]; first compound 0.8 µM): 0.87
relative viability ([7]; first compound 2.53 µM): 0.976
relative viability ([8]; first compound 0.08 µM): 0.602
relative viability ([8]; first compound 0.253 µM): 0.528
relative viability ([8]; first compound 0.8 µM): 0.521
relative viability ([8]; first compound 2.53 µM): 0.602
relative viability ([9]; first compound 0.08 µM): 1.01
relative viability ([9]; first compound 0.253 µM): 0.998
relative viability ([9]; first compound 0.8 µM): 0.969
relative viability ([9]; first compound 2.53 µM): 1.01
relative viability ([10]; first compound 0.08 µM): 0.656
relative viability ([10]; first compound 0.253 µM): 0.709
relative viability ([10]; first compound 0.8 µM): 0.877
relative viability ([10]; first compound 2.53 µM): 0.825
relative viability ([11]; first compound 0.08 µM): 0.426
relative viability ([11]; first compound 0.253 µM): 0.448
relative viability ([11]; first compound 0.8 µM): 0.396
relative viability ([11]; first compound 2.53 µM): 0.556
relative viability ([12]; first compound 0.08 µM): 0.811
relative viability ([12]; first compound 0.253 µM): 0.824
relative viability ([12]; first compound 0.8 µM): 1.05
relative viability ([12]; first compound 2.53 µM): 1.01
relative viability ([13]; first compound 0.08 µM): 0.917
relative viability ([13]; first compound 0.253 µM): 1.19
relative viability ([13]; first compound 0.8 µM): 1.11
relative viability ([13]; first compound 2.53 µM): 1.08
relative viability ([14]; first compound 0.08 µM): 1.19
relative viability ([14]; first compound 0.253 µM): 1.12
relative viability ([14]; first compound 0.8 µM): 1.1
relative viability ([14]; first compound 2.53 µM): 1.15
relative viability ([15]; first compound 0.08 µM): 1.14
relative viability ([15]; first compound 0.253 µM): 1.05
relative viability ([15]; first compound 0.8 µM): 1.2
relative viability ([15]; first compound 2.53 µM): 1.22
relative viability ([16]; first compound 0.08 µM): 0.852
relative viability ([16]; first compound 0.253 µM): 0.818
relative viability ([16]; first compound 0.8 µM): 0.944
relative viability ([16]; first compound 2.53 µM): 0.944
relative viability ([17]; first compound 0.08 µM): 0.782
relative viability ([17]; first compound 0.8 µM): 0.778
relative viability ([17]; first compound 2.53 µM): 0.805
relative viability ([18]; first compound 0.08 µM): 0.789
relative viability ([18]; first compound 0.8 µM): 0.803
relative viability ([18]; first compound 2.53 µM): 0.742
relative viability ([19]; first compound 0.08 µM): 0.833
relative viability ([19]; first compound 0.253 µM): 0.888
relative viability ([19]; first compound 0.8 µM): 1.15
relative viability ([19]; first compound 2.53 µM): 1.22
relative viability ([20]; first compound 0.08 µM): 1.11
relative viability ([20]; first compound 0.253 µM): 0.944
relative viability ([20]; first compound 0.8 µM): 1.03
relative viability ([20]; first compound 2.53 µM): 1.05
